Data: patent US20230090552A1, “ALK5 INHIBITOR CONJUGATES AND USES THEREOF” (Synthis Therapeutics, Inc., priority 2020, published 2023)

How the values were obtained:
ALK5 = biological target: T1, ALK5 (Homo sapiens, UniProt P36897); test: recombinant kinase assays (IC50 and Ki); assay type: biochemical; conditions: versus Compound N
T1 sequence (P36897 34-503): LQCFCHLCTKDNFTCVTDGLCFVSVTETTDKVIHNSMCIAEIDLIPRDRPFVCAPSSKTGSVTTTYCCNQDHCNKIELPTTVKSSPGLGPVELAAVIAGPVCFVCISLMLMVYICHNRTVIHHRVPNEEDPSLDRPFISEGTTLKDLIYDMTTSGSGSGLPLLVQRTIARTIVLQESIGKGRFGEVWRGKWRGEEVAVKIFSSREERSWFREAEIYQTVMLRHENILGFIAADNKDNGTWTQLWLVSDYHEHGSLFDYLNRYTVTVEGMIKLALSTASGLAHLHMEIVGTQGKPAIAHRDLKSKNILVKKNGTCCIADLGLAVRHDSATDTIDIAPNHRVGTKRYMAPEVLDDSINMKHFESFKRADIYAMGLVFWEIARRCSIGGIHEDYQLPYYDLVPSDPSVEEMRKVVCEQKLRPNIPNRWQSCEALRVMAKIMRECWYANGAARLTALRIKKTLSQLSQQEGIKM
Text: Compound N was compared to Compound C in a number of in vitro assays.

IPF disease progression = conditions: patients with mild-moderate disease; cited from earlier work

fold more potent than Compound N in the kinase assays (ALK5) | SMILES | reduced risk of IPF disease progression (IPF disease progression)
10 fold | CNCCOc1ccc(-c2cc(-c3c[nH]nc3-c3cccc(C)n3)ccn2)cc1 [Compound C, N-methyl-2-(4-(4-(3-(6-methylpyridin-2-yl)-1H-pyrazol-4-yl)pyridin-2-yl)phenoxy)ethan-1-amine] | –
– | COC(=O)c1ccc2c(c1)NC(=O)/C2=C(\Nc1ccc(N(C)C(=O)CN2CCN(C)CC2)cc1)c1ccccc1 [nintedanib] | 50%
– | Cc1ccc(=O)n(-c2ccccc2)c1 [pirfenidone] | 50%
